Data taken from US20220372031A1, “NOVEL TRICYCLIC AROMATIC HETEROCYCLIC COMPOUND, PREPARATION METHOD THEREFOR, PHARMACEUTICAL COMPOSITION AND APPLICATION THEREOF” (SHANGHAI LONGWOOD BIOPHARMACEUTICALS CO., LTD., priority 2019, published 2022).

Molecular target: T1, PD-1/PD-L1 (Homo sapiens, UniProt Q9NZQ7)
T1 construct: Recombinant human PD-L1 protein (19-238) with a His-tagged at the C-terminus; purchased AcroBiosystems PD1-H5229 (PD-L1); PD1-H5257 (PD-1)
Test: PD-1/PD-L1 homogeneous time-resolved fluorescence (HTRF) binding assay
Conditions: PD-1/PD-L1 HTRF binding, ~3 nM PD1, 10 nM PD-L1, 25° C., PBS pH 7.4
Protocol: Assays were performed in standard black 384-well polystyrene plates and a final volume was 20 μL. The inhibitor was first serially diluted with DMSO and added to the wells of the plate, followed by the addition of other reaction components. The final concentration of DMSO in the assay was 1%. Assays were performed at 25° C. in PBS buffer (pH 7.4) containing 0.05% Tween-20 and 0.1% BSA. Recombinant human PD-L1 protein (19-238) with a His-tagged at the C-terminus was purchased from AcroBiosystems (PD1-H5229). Recombinant human PD-1 protein (25-167) with an Fc tag at the C-terminus was also purchased from AcroBiosystems (PD1-H5257). The PD-L1 and PD-1 proteins were diluted in assay buffer and then […] of the solution was extracted and added to the wells of the plate. Plates were centrifuged and proteins and inhibitors were preincubated for 40 minutes. After incubation, 0.1 μl of HTRF detection buffer containing europium […] labeled anti-human IgG (PerkinElmer-AD0212), Fc-specific and anti-His SureLight®-Allophycocyanin (APC, PerkinElmer-AD0059H) conjugated antibodies was added. After centrifugation, the plates were incubated at 25° C. for 60 minutes. Data was read in a PHERAstar FS plate reader (665 nm/620 nm ratio). Final concentrations in the assay were ˜3 nM PD1, 10 nM PD-L1, 1 nM europium anti-human IgG, and 20 nM anti-His-allophycocyanin. Activity data were fitted using GraphPad Prism 5_0 software to derive IC50 values for inhibitors.

T1 sequence (Q9NZQ7 19-238): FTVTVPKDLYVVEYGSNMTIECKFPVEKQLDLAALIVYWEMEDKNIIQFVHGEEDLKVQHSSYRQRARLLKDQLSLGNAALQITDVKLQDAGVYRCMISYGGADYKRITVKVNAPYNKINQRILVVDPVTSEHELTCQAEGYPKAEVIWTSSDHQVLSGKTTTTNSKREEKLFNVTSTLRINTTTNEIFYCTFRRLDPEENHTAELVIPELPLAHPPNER

| SMILES | IC50 [µM] |
| --- | --- |
| Cc1c(Nc2nccc3cc(CN4CC[C@@H](O)C4)cnc23)cccc1-c1cccc(-c2cc3c4c(cc([N+](=O)[O-])c3o2)C(N2CC(C(=O)O)C2)CCC4)c1C (stereo partly shown) [Compound 280] | > 0.1 |
| COc1nc(-c2cccc(-c3cccc(-c4nc5cc6c(c(C#N)c5o4)CC[C@H]6N4CC[C@@H](C(=O)O)C4)c3Cl)c2C)cnc1CN1CC[C@@H](O)C1 [Compound 175] | ≤ 0.01 |
| N#Cc1c2c(cc3nc(-c4cccc(-c5cccc(Nc6nc(C(F)F)nc7cc(CN8CC[C@@H](O)C8)cnc67)c5Cl)c4Cl)oc13)[C@H](N1CC[C@@H](C(=O)O)C1)CC2 [Compound 083] | ≤ 0.01 |
| Cc1c(Nc2nccc3cc(CN4CC[C@@H](O)C4)cnc23)cccc1-c1cccc(-c2cc3cc4c(c([N+](=O)[O-])c3o2)CCCC4N2CC(C(=O)O)C2)c1C (stereo partly shown) [Compound 001] | ≤ 0.01 |
| Cc1c(Nc2nccc3cc(CN4CC[C@@H](O)C4)cnc23)cccc1-c1cccc(-c2nc3cc4c(c(C#N)c3o2)CCC4N2CC[C@@H](C(=O)NS(=O)(=O)C3CC3)C2)c1C (stereo partly shown) [Compound 009] | ≤ 0.01 |
| Cc1c(Nc2nccc3cc(CN4CC[C@@H](O)C4)cnc23)cccc1-c1cccc(-c2nc3cc4c(c(C#N)c3o2)CC[C@H]4N2CC[C@@H](C(=O)NS(=O)(=O)C3(C)CC3)C2)c1Cl [Compound 241] | ≤ 0.01 |
| COc1nc(-c2cccc(-c3cccc(-c4cc5cc6c(c(C#N)c5o4)CC[C@H]6N4CC[C@@H](C(=O)O)C4)c3C)c2C)cnc1CN1CC[C@@H](O)C1 [Compound 256] | ≤ 0.01 |
| COc1nc(-c2cccc(-c3cccc(-c4cc5cc6c(c(C#N)c5o4)CCC6N4CC[C@@H](C(=O)O)C4)c3C)c2C)cnc1CN1CC[C@@H](O)C1 (stereo partly shown) [Compound 003] | ≤ 0.01 |

Other lines, results leading:

| IC50 [µM] | SMILES |
| --- | --- |
| ≤ 0.01 | COc1nc(-c2cccc(-c3cccc(-c4cc5cc6c(c(C#N)c5o4)CC[C@H]6N4CC[C@@H](C(=O)NS(=O)(=O)C5(C)CC5)C4)c3Cl)c2Cl)cnc1CN1CC[C@@H](O)C1 [Compound 265] |
| ≤ 0.01 | COc1nc(-c2cccc(-c3cccc(-c4nc5cc6c(c(C#N)c5o4)CC[C@H]6N4CC[C@@H](C(=O)NS(=O)(=O)C5(C)CC5)C4)c3Cl)c2C)cnc1CN1CC[C@@H](O)C1 [Compound 233] |
| ≤ 0.01 | N#Cc1c2c(cc3nc(-c4cccc(-c5cccc(Nc6nc(C(F)F)nc7cc(CN8CC[C@@H](O)C8)cnc67)c5Cl)c4Cl)oc13)[C@H](N1CC[C@@H](C(=O)NS(=O)(=O)C3CC3)C1)CC2 [Compound 087] |
| ≤ 0.01 | Cc1c(Nc2nc(C(F)F)nc3cc(CN4CC[C@@H](O)C4)cnc23)cccc1-c1cccc(-c2nc3cc4c(c(C#N)c3o2)CC[C@H]4N2CC[C@@H](C(=O)O)C2)c1Cl [Compound 082] |
| ≤ 0.01 | Cc1c(-c2nc3cc4c(c(C#N)c3o2)CC[C@H]4N2CC[C@@H](C(=O)O)C2)cccc1-c1cccc(Nc2nccc3cc(CN4CC[C@@H](O)C4)cnc23)c1Cl [Compound 235] |
| ≤ 0.01 | N#Cc1c2c(cc3nc(-c4cccc(-c5cccc(Nc6nccc7cc(CN8CC[C@@H](O)C8)cnc67)c5Cl)c4Cl)oc13)C(N1CC[C@@H](C(=O)O)C1)CC2 (stereo partly shown) [Compound 005] |
| ≤ 0.01 | Cc1c(Nc2nc(C(F)F)nc3cc(CN4CC[C@@H](O)C4)cnc23)cccc1-c1cccc(-c2nc3cc4c(c(C#N)c3o2)CC[C@H]4N2CC[C@@H](C(=O)O)C2)c1C [Compound 016] |
| ≤ 0.01 | COc1nc(-c2cccc(-c3cccc(-c4cc5cc6c(c(C#N)c5o4)CC[C@H]6N4CC[C@@H](C(=O)NS(=O)(=O)C5CC5)C4)c3C)c2Cl)cnc1CN1CC[C@@H](O)C1 [Compound 263] |
| ≤ 0.01 | CN(CC(=O)O)[C@H]1CCc2c1cc1nc(-c3cccc(-c4cccc(Nc5nccc6cc(CN7CC[C@@H](O)C7)cnc56)c4Cl)c3Cl)oc1c2C#N [Compound 013] |
| ≤ 0.01 | N#Cc1c2c(cc3nc(-c4cccc(-c5cccc(Nc6nccc7cc(CN8CC[C@@H](O)C8)cnc67)c5Cl)c4Cl)oc13)[C@@H](NCC(=O)NS(=O)(=O)C1CC1)CC2 [Compound 042] |
| ≤ 0.01 | Cc1c(Nc2nccc3cc(CN4CC[C@@H](O)C4)cnc23)cccc1-c1cccc(-c2cc3cc4c(c(C#N)c3o2)CC[C@H]4N2CC[C@@H](C(=O)NS(=O)(=O)C3CC3)C2)c1C [Compound 248] |
